Measurements: patent publication US20200179339A1, “PHARMACEUTICALS COMPOSITIONS FOR TREATMENT OF ATOPIC DERMATITIS” (CADILA HEALTHCARE LIMITED, priority 2018, published 2020)

Assays:
[1] = test system: oxazolone induced atopic dermatitis in mice; assay: Ear thickness in oxazolone induced atopic dermatitis in mice; assay type: in vivo, female balb/c mice; set-up: Change in ear thickness: unit not given beside the values; settings: for percentage inhibition in ear thickness (atopic dermatitis): topical; for % change: topical day 5 and day 6, ear thickness vs vehicle control; for Change in ear thickness: topical on left ear day 5 and day 6
Method: (§1) The 7-8 week old female balb/c mice used for the study were divided into four groups of six mice each. Animal shaved on their abdomen region. On day-1, Oxazolone (Sigma chemical Co. USA) was dissolved in ethanol and applied at a dose volume is 500 ug/100 μl/mouse on shaved abdomen side as sensitized dose. On day 5, basal ear thickness was measured and oxazolone (dissolved in acetone, (100 μg/20 μl)) applied on left side ear at a dose volume of 20 μl/mouse on day 5 and day 6. Post Two hours of oxazolone application, treatment drugs applied on left ear respectively. Treatment was applied on day 5 and day 6 and ear thickness was measured on day 5 (basal), day 6 and day 7.
All animals were assessed for the ear thickness measurement. Animals were sacrificed on day 7, Ear weight were taken and ear were collected for histology and gene expression.
as §1, with “into five” for “into four”, “20 μ/mouse” for “20 μl/mouse”
All animals were assessed for the ear thickness measurement. Animals were sacrificed on day 7, Ear weight were taken.

[2] = test system: cyclo-oxygenase enzymes (COX); settings: background statement; cited from earlier work
[3] = Study-1, text, Apremilast 3%, Diclofenac 1.5%
[4] = Study-1, Apremilast 3%, Diclofenac 1.5%
[5] = Study-1, Apremilast 3%, Diclofenac 1.5%, vehicle control 0.3
[6] = Study-2, text, Apremilast 1%, Diclofenac 1%
[7] = Study-2, Apremilast 1%, Diclofenac 1%
[8] = Study-2, Apremilast 1%, Diclofenac 1%, vehicle control 0.44

With `O=C([O-])Cc1ccccc1Nc1c(Cl)cccc1Cl.[Na+]` [Diclofenac, sodium salt of [2-(2,6-Dichloroanilino)phenyl]acetic acid] the “percentage inhibition in ear thickness (atopic dermatitis)” value (from here on “percentage inhibition in ear thickness”) [1, 3] was 64%, the “% change” value [1, 4] was 63.8% and the “Change in ear thickness” value [1, 5] was 0.11. For the same molecule, the “percentage inhibition in ear thickness” value [1, 6] was 37%, the “% change” value [1, 7] was 36.8% and the “Change in ear thickness” value [1, 8] was 0.28. For the same molecule, the “approximate relative COX-1/COX-2 specificity ratio” value [2] was “one”.
With `CCOc1cc([C@@H](CS(C)(=O)=O)N2C(=O)c3cccc(NC(C)=O)c3C2=O)ccc1OC` [Apremilast, (+)-2-[1-(3-ethoxy-4-methoxyphenyl)-2-methanesulfonylethyl]-4-acetylaminoisoindolin-1,3-dione] the “percentage inhibition in ear thickness” value [1, 3] was 38%, the “% change” value [1, 4] was 38.6% and the “Change in ear thickness” value [1, 5] was 0.18. The “percentage inhibition in ear thickness” value [1, 6] was 45%, the “% change” value [1, 7] was 45.1% and the “Change in ear thickness” value [1, 8] was 0.24.
